Measurements published in patent publication US5028587A, “Mixed crystals of insulin and insulin derivatives” (Hoechst Aktiengesellschaft, priority 1987, dated 1991).

Key:
[1] = specific activity of the insulin used; details: specific activity of the substance used for crystallization
[2] = cited from earlier work
[3] = isoelectric point by isoelectric focusing; format: physicochemical; details: pH
Excerpt: It is common to all these insulin derivatives that the additional positive charge(s) which is(are) located on the surface of the molecule confer on the molecule an isoelectric point which is displaced into the neutral range. Depending on the derivative, the isoelectric points measured by isoelectric focusing are from about 5.8 to about 8.5, in particular about 6.2 to about 8.2. This means that the derivatives are less soluble in the neutral range than is unmodified insulin, whose isoelectric point, and thus whose region of maximum insolubility, is at a pH of about 5.4, whereas it is normally in dissolved form in the neutral range.

Substance | activity [1] | in vivo half-life [2] | isoelectric point [3]
Arg2 -(B31-32) human insulin | 27 I.U./mg |  | 
Arg-B31 human insulin | 27 I.U./mg |  | 
Human insulin | 27 I.U./mg |  | 
insulin [unmodified insulin] |  | about 7 minutes | about 5.4
